{"source": "PubChem BioAssay AID1259407", "about": "(Chemical Carcinogenesis Research Information System (CCRIS), 2018)", "test_system": "CCRIS mutagenicity, Ames/micronucleus/aberration tests", "assay": "CCRIS mutagenicity studies", "key": {"[1]": {"settings": "Test System: AMES SALMONELLA TYPHIMURIUM, Strain/Indicator: TA98, Metabolic Activation: NONE, Method: STANDARD PLATE"}, "[2]": {"settings": "Test System: AMES SALMONELLA TYPHIMURIUM, Strain/Indicator: TA100, Metabolic Activation: NONE, Method: STANDARD PLATE"}}, "note": "Activity calls are given as the source filed them. The rule behind the calls is not given here.", "data": [{"compound": "O=Cc1ccco1", "values": [{"measurement": "mutagenic call", "setting": "Test System: AMES SALMONELLA TYPHIMURIUM, Strain/Indicator: TA97, Metabolic Activation: NONE, Method: PREINCUBATION", "value": "inactive; negative"}, {"measurement": "mutagenic call", "setting": "Test System: AMES SALMONELLA TYPHIMURIUM, Strain/Indicator: TA97, Metabolic Activation: RAT, LIVER, S-9, AROCLOR 1254, Method: PREINCUBATION", "value": "inactive; negative"}, {"measurement": "mutagenic call", "setting": "Test System: AMES SALMONELLA TYPHIMURIUM, Strain/Indicator: TA98, Metabolic Activation: HAMSTER, LIVER, S-9, AROCLOR 1254 (10%), Method: PREINCUBATION", "value": "inactive; negative"}, {"measurement": "mutagenic call", "setting": "Test System: AMES SALMONELLA TYPHIMURIUM, Strain/Indicator: TA98, Metabolic Activation: HAMSTER, LIVER, S-9, AROCLOR 1254, Method: PREINCUBATION", "value": "inactive; negative"}, {"measurement": "mutagenic call", "setting": "[1]", "value": "inactive; negative"}, {"measurement": "mutagenic call", "setting": "Test System: AMES SALMONELLA TYPHIMURIUM, Strain/Indicator: TA98, Metabolic Activation: RAT LIVER S-9, PHENOBARBITAL AND BETA-NAPHTHOFLAVONE, Method: PREINCUBATION", "value": "inactive; negative"}, {"measurement": "mutagenic call", "setting": "Test System: AMES SALMONELLA TYPHIMURIUM, Strain/Indicator: TA98, Metabolic Activation: RAT, LIVER, S-9, AROCLOR 1254 (10%), Method: PREINCUBATION", "value": "inactive; negative"}, {"measurement": "mutagenic call", "setting": "Test System: AMES SALMONELLA TYPHIMURIUM, Strain/Indicator: TA98, Metabolic Activation: RAT, LIVER, S-9, AROCLOR 1254, Method: PREINCUBATION", "value": "inactive; negative"}, {"measurement": "mutagenic call", "setting": "Test System: AMES SALMONELLA TYPHIMURIUM, Strain/Indicator: TA98, Metabolic Activation: S-9, Method: STANDARD PLATE", "value": "inactive; negative"}, {"measurement": "mutagenic call", "setting": "Test System: AMES SALMONELLA TYPHIMURIUM, Strain/Indicator: TA100, Metabolic Activation: HAMSTER, LIVER, S-9, AROCLOR 1254 (10%), Method: PREINCUBATION", "value": "inactive; negative"}, {"measurement": "mutagenic call", "setting": "Test System: AMES SALMONELLA TYPHIMURIUM, Strain/Indicator: TA100, Metabolic Activation: HAMSTER, LIVER, S-9, AROCLOR 1254, Method: PREINCUBATION", "value": "inactive; negative"}, {"measurement": "mutagenic call", "setting": "[2]", "value": "inactive; negative"}, {"measurement": "mutagenic call", "setting": "Test System: AMES SALMONELLA TYPHIMURIUM, Strain/Indicator: TA100, Metabolic Activation: RAT LIVER S-9, AROCLOR 1254, Method: PREINCUBATION", "value": "inactive; negative"}, {"measurement": "mutagenic call", "setting": "Test System: AMES SALMONELLA TYPHIMURIUM, Strain/Indicator: TA100, Metabolic Activation: RAT LIVER S-9, PHENOBARBITAL AND BETA-NAPHTHOFLAVONE, Method: PREINCUBATION", "value": "inactive; negative"}, {"measurement": "mutagenic call", "setting": "Test System: AMES SALMONELLA TYPHIMURIUM, Strain/Indicator: TA100, Metabolic Activation: RAT, LIVER, S-9, AROCLOR 1254 (10%), Method: PREINCUBATION", "value": "inactive; negative"}, {"measurement": "mutagenic call", "setting": "Test System: AMES SALMONELLA TYPHIMURIUM, Strain/Indicator: TA100, Metabolic Activation: RAT, LIVER, S-9, AROCLOR 1254, Method: PREINCUBATION", "value": "inactive; negative"}, {"measurement": "mutagenic call", "setting": "Test System: AMES SALMONELLA TYPHIMURIUM, Strain/Indicator: TA100, Metabolic Activation: RAT, LIVER, S-9, AROCLOR 1254, Method: STANDARD PLATE", "value": "active; positive"}, {"measurement": "mutagenic call", "setting": "Test System: AMES SALMONELLA TYPHIMURIUM, Strain/Indicator: TA102, Metabolic Activation: MOUSE LIVER S-9, AROCLOR 1254, Method: PREINCUBATION", "value": "inactive; negative"}, {"measurement": "mutagenic call", "setting": "Test System: AMES SALMONELLA TYPHIMURIUM, Strain/Indicator: TA102, Metabolic Activation: NONE, Method: PREINCUBATION", "value": "inactive; negative"}, {"measurement": "mutagenic call", "setting": "Test System: AMES SALMONELLA TYPHIMURIUM, Strain/Indicator: TA102, Metabolic Activation: RAT, LIVER, S-9, AROCLOR 1254, Method: PREINCUBATION", "value": "inactive; negative"}, {"measurement": "mutagenic call", "setting": "Test System: AMES SALMONELLA TYPHIMURIUM, Strain/Indicator: TA104, Metabolic Activation: MOUSE LIVER S-9, AROCLOR 1254, Method: PREINCUBATION", "value": "inactive; negative"}, {"measurement": "mutagenic call", "setting": "Test System: AMES SALMONELLA TYPHIMURIUM, Strain/Indicator: TA1535, Metabolic Activation: HAMSTER, LIVER, S-9, AROCLOR 1254 (10%), Method: PREINCUBATION", "value": "inactive; negative"}, {"measurement": "mutagenic call", "setting": "Test System: AMES SALMONELLA TYPHIMURIUM, Strain/Indicator: TA1535, Metabolic Activation: HAMSTER, LIVER, S-9, AROCLOR 1254, Method: PREINCUBATION", "value": "inactive; negative"}, {"measurement": "mutagenic call", "setting": "Test System: AMES SALMONELLA TYPHIMURIUM, Strain/Indicator: TA1535, Metabolic Activation: NONE, Method: PREINCUBATION", "value": "inactive; negative"}, {"measurement": "mutagenic call", "setting": "Test System: AMES SALMONELLA TYPHIMURIUM, Strain/Indicator: TA1535, Metabolic Activation: RAT LIVER S-9, PHENOBARBITAL AND BETA-NAPHTHOFLAVONE, Method: PREINCUBATION", "value": "inactive; negative"}, {"measurement": "mutagenic call", "setting": "Test System: AMES SALMONELLA TYPHIMURIUM, Strain/Indicator: TA1535, Metabolic Activation: RAT, LIVER, S-9, AROCLOR 1254 (10%), Method: PREINCUBATION", "value": "inactive; negative"}, {"measurement": "mutagenic call", "setting": "Test System: AMES SALMONELLA TYPHIMURIUM, Strain/Indicator: TA1535, Metabolic Activation: RAT, LIVER, S-9, AROCLOR 1254, Method: PREINCUBATION", "value": "inactive; negative"}, {"measurement": "mutagenic call", "setting": "Test System: AMES SALMONELLA TYPHIMURIUM, Strain/Indicator: TA1537, Metabolic Activation: HAMSTER, LIVER, S-9, AROCLOR 1254 (10%), Method: PREINCUBATION", "value": "inactive; negative"}, {"measurement": "mutagenic call", "setting": "Test System: AMES SALMONELLA TYPHIMURIUM, Strain/Indicator: TA1537, Metabolic Activation: HAMSTER, LIVER, S-9, AROCLOR 1254, Method: PREINCUBATION", "value": "inactive; negative"}, {"measurement": "mutagenic call", "setting": "Test System: AMES SALMONELLA TYPHIMURIUM, Strain/Indicator: TA1537, Metabolic Activation: NONE, Method: PREINCUBATION", "value": "inactive; negative"}, {"measurement": "mutagenic call", "setting": "Test System: AMES SALMONELLA TYPHIMURIUM, Strain/Indicator: TA1537, Metabolic Activation: RAT LIVER S-9, PHENOBARBITAL AND BETA-NAPHTHOFLAVONE, Method: PREINCUBATION", "value": "inactive; negative"}, {"measurement": "mutagenic call", "setting": "Test System: AMES SALMONELLA TYPHIMURIUM, Strain/Indicator: TA1537, Metabolic Activation: RAT, LIVER, S-9, AROCLOR 1254 (10%), Method: PREINCUBATION", "value": "inactive; negative"}, {"measurement": "mutagenic call", "setting": "Test System: AMES SALMONELLA TYPHIMURIUM, Strain/Indicator: TA1537, Metabolic Activation: RAT, LIVER, S-9, AROCLOR 1254, Method: PREINCUBATION", "value": "inactive; negative"}, {"measurement": "mutagenic call", "setting": "Test System: E.COLI, Strain/Indicator: WP2UVRA, Metabolic Activation: NONE, Method: PREINCUBATION", "value": "inactive; negative"}, {"measurement": "mutagenic call", "setting": "Test System: E.COLI, Strain/Indicator: WP2UVRA, Metabolic Activation: RAT LIVER S-9, PHENOBARBITAL AND BETA-NAPHTHOFLAVONE, Method: PREINCUBATION", "value": "inactive; negative"}, {"measurement": "mutagenic call", "setting": "Test System: MOUSE LYMPHOMA, Strain/Indicator: L5178Y (TK+/TK-), Metabolic Activation: NONE, Method: SUSPENSION/PLATE", "value": "active; positive"}]}, {"compound": "O=C(CBr)c1ccc(Br)cc1", "values": [{"measurement": "mutagenic call", "setting": "Test System: AMES SALMONELLA TYPHIMURIUM, Strain/Indicator: TA98, Metabolic Activation: NONE, Method: PREINCUBATION", "value": "inactive; negative"}, {"measurement": "mutagenic call", "setting": "Test System: AMES SALMONELLA TYPHIMURIUM, Strain/Indicator: TA98, Metabolic Activation: RAT, LIVER, S-9, PCB, Method: PREINCUBATION", "value": "inactive; negative"}, {"measurement": "mutagenic call", "setting": "Test System: AMES SALMONELLA TYPHIMURIUM, Strain/Indicator: TA100, Metabolic Activation: NONE, Method: PREINCUBATION", "value": "inactive; negative"}, {"measurement": "mutagenic call", "setting": "Test System: AMES SALMONELLA TYPHIMURIUM, Strain/Indicator: TA100, Metabolic Activation: RAT, LIVER, S-9, PCB, Method: PREINCUBATION", "value": "inactive; negative"}, {"measurement": "mutagenic call", "setting": "Test System: E. COLI, Strain/Indicator: WP2 UVRA, Metabolic Activation: NONE, Method: PREINCUBATION", "value": "inactive; negative"}]}, {"compound": "CCCCCC/C=C/C=O", "values": [{"measurement": "mutagenic call", "setting": "End Point: IN VITRO CHROMOSOMAL ABERRATIONS, Test System: RAT HEPATOCYTES, Metabolic Activation: NONE", "value": "inactive; negative"}, {"measurement": "mutagenic call", "setting": "End Point: IN VITRO MICRONUCLEUS, Test System: RAT HEPATOCYTES, Metabolic Activation: NONE", "value": "inactive; negative"}, {"measurement": "mutagenic call", "setting": "Test System: CHINESE HAMSTER V-79, Strain/Indicator: V-79/6-THIOGUANINE, Metabolic Activation: NONE, Method: STANDARD PLATE", "value": "active; positive"}, {"measurement": "mutagenic call", "setting": "Test System: CHINESE HAMSTER V-79, Strain/Indicator: V-79/OUABAIN, Metabolic Activation: NONE, Method: STANDARD PLATE", "value": "inactive; negative"}]}, {"compound": "COC(=O)c1ccc([N+](=O)[O-])o1", "values": [{"measurement": "mutagenic call", "setting": "[1]", "value": "active; positive"}, {"measurement": "mutagenic call", "setting": "[2]", "value": "active; positive"}]}, {"compound": "CN(C)/C=N/c1nnc(/C=C/c2ccc([N+](=O)[O-])o2)o1", "values": [{"measurement": "mutagenic call", "setting": "Test System: AMES SALMONELLA TYPHIMURIUM, Strain/Indicator: TA100, Metabolic Activation: RAT, LIVER, S-9, KC500 OR PHENOBARBITAL, Method: LIQUID SUSPENSION", "value": "active; positive"}]}]}
